Data taken from patent US20110229531A1, “ANTI-PROTOZOA COMPOUNDS” (priority 2009, published 2011).
pIC50: −log10 of the molar value.

System: Acanthamoeba
Test: Acanthamoeba growth inhibition, alamarBlue reduction
Format: cell-based, Acanthamoeba castellanii
Excerpt: Furthermore, inhibition was ablated in a dose dependent manner by the addition of histidine to the medium.

Structure (SMILES): Nc1nc[nH]n1 [3-AT, 3-amino-1,2,4-triazole]
- effect of 3AT on growth in the presence of histidine (10 mM histidine added, 0.98 mM 3-AT, alamarBlue reduction): significantly (p<0.05) ablated the effect of 3AT
- IC20 (Acanthamoeba, read-out: IC20 of 3-AT): 980 µM
- pIC50 (Acanthamoeba, absence of histidine, percentage of alamarBlue reduction): 4.51 to 4.82
- concentration required to significantly (p<0.05) inhibit A. castellanii growth (in the presence of 1 mM Histidine): ≥ 0.06 mM
- growth of Acanthamoeba (medium without histidine, inhibition ablated dose dependently by added histidine): inhibits growth
- concentration that significantly (p<0.05) inhibited A. castellanii growth (no histidine, compared with untreated control cultures, dose dependent): ≥ 0.00095 mM

Structure (SMILES): N[C@@H](Cc1c[nH]cn1)C(=O)O [histidine]
- toxicity of histidine to Acanthamoeba (100 mM histidine): toxic
